Results from patent US10934255B2, “Nrf and HIF activators/HDAC inhibitors and therapeutic methods using the same” (THE BOARD OF TRUSTEES OF THE UNIVERSITY OF ILLINOIS, priority 2017, dated 2021).

How the values were obtained:
mouse neuronal N2a cells = test: MPP+ neurotoxicity in N2a cells (Presto-Blue); assay type: cell-based; details: 5 μM compound, MPP+ 100 μM, 24 h
Description: FIG. 2B contains bar graphs showing test compounds at 5 μM protected N2a cells against MPP+(100 μM) insult. Cell viability was measured at 24 h using Presto-Blue assay.
(§1) II-ING-6 and II-ING-66, were tested in neuronal cell lines subjected to H2O2 and MPP+-induced toxicity (Parkinson's disease model), and in a composite model of ischemia-reperfusion injury: oxygen glucose deprivation (OGD). In H2O2-induced neurotoxicity in human neuronal SH-SY5Y cells, neuroprotective properties of compounds II-ING-6 and II-ING-66 were assessed using 24 h pretreatment regimen (FIG. 2A). […] Neuroprotection against OGD is expected to be mediated by HIF-1α and Nrf2. In this assay, after pretreatment of cells 24 h prior to OGD insult, both compounds were neuroprotective (FIG. 3A).

[1] = In vitro metabolic stability in human liver microsomes; assay type: in vitro ADME; details: human liver microsomes after 60 min at 10 uM
SH-SY5Y cells = test: Oxygen glucose deprivation (OGD) in SH-SY5Y cells (MTT); assay type: cell-based, human; details: for Neuroprotection against OGD, pretreatment: pretreatment 24 h prior to OGD insult; for Neuroprotection against OGD, post-treatment: treatment after OGD
Description: FIG. 3A contains bar graphs showing a concentration dependence of II-ING-6 and II-ING-66 neuroprotection in SH-SY5Y cells subject to OGD: 24 h pretreatment.
FIG. 3B contains bar graphs showing concentration dependencies of II-ING-6 and II-ING-66 neuroprotection in SH-SY5Y cells subject to OGD: treatment post OGD. Cell viability was measured using the MTT assay 24 h post insult.
as §1

[2] = liver-on-a-chip assay, viability of HepaRG hepatocytes by MTT; assay type: cell-based; details: human, HepaRG hepatocytes in liver-on-a-chip, read-out: LC50
HDAC8 = biological target: T1, HDAC8 (Homo sapiens, UniProt Q9BY41); test: HDAC8 isoform selectivity assay; assay type: biochemical; details: Table 2 isoform selectivity; read-out: HDAC Inhibition (IC50 uM) isoform 8
T1 sequence (Q9BY41 1-377): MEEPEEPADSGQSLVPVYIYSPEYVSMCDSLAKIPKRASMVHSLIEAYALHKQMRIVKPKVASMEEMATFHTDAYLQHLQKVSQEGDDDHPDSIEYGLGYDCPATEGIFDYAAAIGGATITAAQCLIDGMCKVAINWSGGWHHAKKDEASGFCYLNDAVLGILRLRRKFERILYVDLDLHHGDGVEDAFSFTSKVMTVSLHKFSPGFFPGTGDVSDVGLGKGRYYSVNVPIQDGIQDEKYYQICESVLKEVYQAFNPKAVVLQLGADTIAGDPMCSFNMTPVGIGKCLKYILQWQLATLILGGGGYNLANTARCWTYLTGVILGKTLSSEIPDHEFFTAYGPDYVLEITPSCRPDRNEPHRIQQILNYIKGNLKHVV
Description: (§2) The HDAC1, 2, 4, 5, 6, 7, 8, 9, 10, and 11 assays used isolated recombinant human protein; HDAC3/NcoR2 complex was used for the HDAC3 assay. Substrate for HDAC1, 2, 3, 6, 10, and 11 assays is a fluorogenic peptide from p53 residues 379-382 (RHKKAc); substrate for HDAC8 is fluorogenic diacyl peptide based on residues 379-382 of p53 (RHKAcKAc). Acetyl-Lys(trifluoroacetyl)-AMC substrate was used for HDAC4, 5, 7, and 9 assays. Compounds were dissolved in DMSO and tested in 10-dose IC50 mode with 3-fold serial dilution starting at 30 μM. Control Compound Trichostatin A (TSA) was tested in a 10-dose IC50 with 3-fold serial dilution starting at 5 μM. IC50 values were extracted by curve-fitting the dose/response slopes. Assays were performed in duplicate and IC50 values are an average of data from both experiments.

[3] = tested on: human neuronal SH-SY5Y cells; test: H2O2-induced neurotoxicity in SH-SY5Y cells (MTT); assay type: cell-based; details: 24 h pretreatment, MTT at 24 h
Description: FIG. 2A contains bar graphs showing the concentration-dependent neuroprotection of SH-SY5Y cells from H2O2-induced toxicity. Cell viability was measured using the MTT assay at 24 h. […] (B) Test compounds at 5 μM protected N2a cells against MPP+ (100 μM) insult. Cell viability was measured at 24 h using Presto-Blue assay.
as §1

HDAC2 = HDAC2 (Homo sapiens, UniProt Q92769); test: HDAC2 isoform selectivity assay; assay type: biochemical; details: Table 2 isoform selectivity; read-out: HDAC Inhibition (IC50 uM) isoform 2
Description: as §2

HDAC7 = biological target: T2, HDAC7 (Homo sapiens, UniProt Q8WUI4); test: HDAC7 isoform selectivity assay; assay type: biochemical; details: Table 2 isoform selectivity; read-out: HDAC Inhibition (IC50 uM) isoform 7
T2 sequence (Q8WUI4 1-952): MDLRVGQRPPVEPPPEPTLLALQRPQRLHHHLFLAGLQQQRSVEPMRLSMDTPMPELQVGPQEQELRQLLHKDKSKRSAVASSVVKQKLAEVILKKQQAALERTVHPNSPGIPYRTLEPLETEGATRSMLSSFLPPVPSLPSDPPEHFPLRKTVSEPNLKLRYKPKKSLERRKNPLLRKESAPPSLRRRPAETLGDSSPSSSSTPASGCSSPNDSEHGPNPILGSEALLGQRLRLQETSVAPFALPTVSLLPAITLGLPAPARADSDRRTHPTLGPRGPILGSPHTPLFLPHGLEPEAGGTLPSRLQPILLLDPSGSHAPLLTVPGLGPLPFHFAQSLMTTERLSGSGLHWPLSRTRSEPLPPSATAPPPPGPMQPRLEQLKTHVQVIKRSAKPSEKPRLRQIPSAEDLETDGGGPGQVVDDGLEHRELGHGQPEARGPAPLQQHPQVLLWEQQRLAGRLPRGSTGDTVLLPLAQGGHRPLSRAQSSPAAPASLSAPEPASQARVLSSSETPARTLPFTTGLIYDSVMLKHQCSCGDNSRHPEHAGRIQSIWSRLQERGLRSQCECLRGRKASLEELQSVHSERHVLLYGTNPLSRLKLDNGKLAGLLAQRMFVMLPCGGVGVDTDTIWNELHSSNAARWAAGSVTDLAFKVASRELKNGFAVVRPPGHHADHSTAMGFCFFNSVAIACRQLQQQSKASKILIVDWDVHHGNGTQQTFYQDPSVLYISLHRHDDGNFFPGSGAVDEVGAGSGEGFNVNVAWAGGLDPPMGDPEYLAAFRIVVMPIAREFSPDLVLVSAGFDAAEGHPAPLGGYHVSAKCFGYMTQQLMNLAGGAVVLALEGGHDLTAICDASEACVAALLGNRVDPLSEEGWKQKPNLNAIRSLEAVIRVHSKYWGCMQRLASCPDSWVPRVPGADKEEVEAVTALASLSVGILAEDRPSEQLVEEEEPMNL
Description: as §2

HDAC4 = HDAC4 (Homo sapiens, UniProt P56524); test: HDAC4 isoform selectivity assay; assay type: biochemical; details: Table 2 isoform selectivity; read-out: HDAC Inhibition (IC50 uM) isoform 4
Description: as §2

HDAC4, sequence (P56524 whole entry, canonical isoform): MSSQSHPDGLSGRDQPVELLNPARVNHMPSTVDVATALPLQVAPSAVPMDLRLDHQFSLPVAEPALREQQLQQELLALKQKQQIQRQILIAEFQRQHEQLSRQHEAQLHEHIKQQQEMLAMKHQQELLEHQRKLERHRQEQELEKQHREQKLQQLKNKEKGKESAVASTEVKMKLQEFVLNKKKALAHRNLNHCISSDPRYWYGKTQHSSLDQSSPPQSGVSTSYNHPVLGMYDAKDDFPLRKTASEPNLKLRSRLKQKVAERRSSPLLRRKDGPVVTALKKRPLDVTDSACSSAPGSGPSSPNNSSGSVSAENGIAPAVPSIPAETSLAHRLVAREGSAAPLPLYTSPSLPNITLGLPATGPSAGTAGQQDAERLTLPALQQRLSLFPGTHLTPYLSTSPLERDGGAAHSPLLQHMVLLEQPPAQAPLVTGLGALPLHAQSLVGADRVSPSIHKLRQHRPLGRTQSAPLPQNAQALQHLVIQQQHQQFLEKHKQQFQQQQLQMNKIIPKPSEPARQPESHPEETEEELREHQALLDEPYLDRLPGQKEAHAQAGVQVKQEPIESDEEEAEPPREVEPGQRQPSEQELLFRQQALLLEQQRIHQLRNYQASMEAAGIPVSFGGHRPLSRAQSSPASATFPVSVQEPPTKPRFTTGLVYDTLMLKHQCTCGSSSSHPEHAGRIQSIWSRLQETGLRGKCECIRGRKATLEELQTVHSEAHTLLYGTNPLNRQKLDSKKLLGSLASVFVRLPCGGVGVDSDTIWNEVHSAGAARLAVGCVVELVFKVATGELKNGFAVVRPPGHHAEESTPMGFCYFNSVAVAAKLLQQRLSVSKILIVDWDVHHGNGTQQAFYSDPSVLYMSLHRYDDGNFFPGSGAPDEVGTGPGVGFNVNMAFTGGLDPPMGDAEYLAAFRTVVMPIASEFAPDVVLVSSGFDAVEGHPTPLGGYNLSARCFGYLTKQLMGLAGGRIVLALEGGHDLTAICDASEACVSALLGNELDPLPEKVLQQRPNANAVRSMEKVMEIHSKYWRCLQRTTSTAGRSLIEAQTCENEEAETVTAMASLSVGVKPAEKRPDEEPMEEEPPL
HDAC2, sequence (Q92769 whole entry, canonical isoform): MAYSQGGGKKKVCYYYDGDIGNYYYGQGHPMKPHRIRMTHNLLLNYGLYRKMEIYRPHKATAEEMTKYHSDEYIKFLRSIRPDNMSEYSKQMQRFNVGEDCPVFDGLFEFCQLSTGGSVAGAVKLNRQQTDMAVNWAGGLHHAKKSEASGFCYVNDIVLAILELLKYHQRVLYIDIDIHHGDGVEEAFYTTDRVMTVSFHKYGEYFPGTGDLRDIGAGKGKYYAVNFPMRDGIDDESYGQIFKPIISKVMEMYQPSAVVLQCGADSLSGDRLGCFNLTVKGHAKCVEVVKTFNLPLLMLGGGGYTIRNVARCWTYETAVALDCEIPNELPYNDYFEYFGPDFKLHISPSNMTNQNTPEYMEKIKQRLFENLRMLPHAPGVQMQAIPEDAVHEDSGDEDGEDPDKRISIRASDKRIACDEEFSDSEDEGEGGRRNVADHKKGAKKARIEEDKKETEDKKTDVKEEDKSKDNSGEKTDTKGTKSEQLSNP

| SMILES | Protection against MPP+ neurotoxicity (mouse neuronal N2a cells) | Microsomes stability (% remaining vsT0) [1] [% remaining vsT0] | Neuroprotection against OGD, pretreatment (SH-SY5Y cells) | Neuroprotection against OGD, post-treatment (SH-SY5Y cells) | CC50 at 48 h [2] [nM] | IC50 (HDAC8) [µM] | Neuroprotection from H2O2-induced toxicity [3] | IC50 (HDAC2) [µM] | IC50 (HDAC7) [µM] | IC50 (HDAC4) [µM] |
| --- | --- | --- | --- | --- | --- | --- | --- | --- | --- | --- |
| O=C(NO)c1ccc(CN2CCc3ccc(Cl)cc32)cc1 [II-ING-6, 4-((6-Chloroindolin-1-yl)methyl)-N-hydroxybenzamide] | significant protection | 88.6 | neuroprotective | significant neuroprotection | > 500000 | 0.53 | Significant neuroprotection | 6.24 | 0.98 | 3.48 |
| Cn1c(NCc2ccc(C(=O)NO)cc2)nc2ccccc21 [II-ING-13, N-Hydroxy-4-(((1-methyl-1H-benzo[d]imidazol-2-yl)amino)methyl)benzamide] | – | – | – | – | – | 0.17 | – | 5.2 | 0.55 | 2.42 |
| O=C(NO)c1ccc(CN2CCc3cc(Cl)ccc32)cc1 [II-ING-39, 4-((5-Chloroindolin-1-yl)methyl)-N-hydroxybenzamide] | – | 81.7 | – | – | – | – | – | – | – | – |
| O=C(NO)c1ccc(CN2CCc3ccc(F)cc32)cc1 [II-ING-41, 4-((6-Fluoroindolin-1-yl)methyl)-N-hydroxybenzamide] | – | 88.1 | – | – | – | 0.19 | – | 7.15 | 0.46 | 2.41 |
| O=C(NO)c1ccc(CN2C(=O)C(F)(F)c3ccccc32)cc1 [II-ING-66, 4-((3,3-Difluoro-2-oxoindolin-1-yl)methyl)-N-hydroxybenzamide] | significant protection | – | neuroprotective | significant neuroprotection only for compound II-ING-6 | > 500000 | – | Significant neuroprotection | – | – | – |
